# “And” between values parts separate entries of the source, which are not always exact repeats. Equal values may be shown once. Where a name gives a salt, the structure may show the parent alone. Read-outs that look alike come from different tables or passages of the source.
# What was measured:
# ip M5076 sarcoma = experiment: ip-implanted M5076 sarcoma in mice; assay type: in vivo, mouse; details: for Increase in lifespan (ILS): C/sc (every 3 hours x4 on Days 1, 5 and 9)
# Source text: (§2) Tumors used in these studies--P388 leukemia and its doxorbicin--and mitoxanrone-resistant sublines, L1210 leukemia, B16 melanoma, B16 melanoma/F10 subline, M5076 sarcoma and colon carcinoma 26--are maintained by serial transplantation in syngeneic strains of mice. For the leukemias, these tumors are maintained in DBA/2 mice. The M5076 sarcoma, the B16 melanoma and its F10 subline are maintained in C57B1/6 mice and the colon sarcinoma 26 is maintained in BALB/c mice. The leukemias and the M5076 sarcoma are serially transplanted i.p. as ascites cell suspensions while the B16 melanoma lines and the colon carcinoma 26 are serially transplanted as s.c. solid tumors.
# (§3) For therapeutic trials, tumors are aseptically removed from donor mice and prepared as suspensions for implantation ip into test animals. The test animals for the colon carcinoma 26 are female BALB/c mice (20-25 gm). The test animals for the other tumor models are syngeneic female F1 hybrid B6D2F1 mice (C57B1/6 x DBA/2). The inoculum level varies with the type of tumor: P388 leukemia is inoculated at 10^6 cells per mouse, L1210 leukemia at 10^5 or 10^6 cells per mouse, M5076 sarcoma at 5×10^6 cells per mouse. For implantation of the B16 melanoma lines and the colon carcinoma 26, s.c. tumors from donor mice are minced and homogenized in loose fitting teflon glass homogenizer to give a tumor brei. The inoculum levels are 0.5 ml of a 10 percent (w:v) brei of the B16 melanoma lines and 0.5 ml of a 5 percent (w:v) brei of colon carcinoma 26. After tumor inoculation, mice randomized to treatment groups comprised of 6-8 mice each. In each experiment, there are three groups of untreated control mice. Drugs are dissolved or suspended in appropriate aqueous vehicles and given by a variety of routes and schedules of administration over a range of dose levels. Animals are housed in shoebox cages and are monitored daily for mortality for 30 (L1210), 45 (P388) or 60 (B16, M5076, colon 26) days.
# in vivo [1] = details: mouse, ip
# Source text: as §2, §3
# in vivo [2] = details: mouse, ip; remark: listed apart in the source
# Method: (§4) For in vivo studies L1210 cells were implanted i.p. (10^6 per mouse)
# (§5) and drugs were administered i.p. on Days 1 and 5. Increase in lifespan
# (§6) (ILS) was based on median survival time of groups of 6 mice treated at th
# maximally tolerated dose of the drugs.
# [3] = test system: eight cultured human colon tumor cell lines; experiment: Cytotoxicity in series of eight cultured human colon tumor cell lines; assay type: cell-based
# Method: For a brief exposure (2 hours) to the drug, the 50 percent inhibitory concentration ranged from 0.12-2.1 μg/ml.
# The cell lines are used and maintained as monolayer cultures in Minimal Essential Media (Grand Island Biological Co., Grand Island, N.Y.) supplemented with 10% fetal calf serum in a 5% CO2 humidified incubator at 37° C. Various concentrations of a Formula (I) compound under sterile conditions were allowed to react for 2 hours followed by aspiration of medium or were exposed continuously. Plates are incubated for 7 days at 37° C. in a CO2 incubator. Medium was aspirated and cells were fixed and stained with ethanol and Geisma stain. The surviving cell population was determined by scanning the plates with an image analyzer. The percent inhibition of proliferation was determined relative to cells incubated in the absence of drug and the 50 percent inhibitory concentration (IC50) was determined by interpolation.
# [4] = test system: sc Madison lung carcinoma; experiment: sc-implanted Madison lung carcinoma in mice; assay type: in vivo, mouse
# Source text: (§1) The inoculum varies with the tumor.
# ip L1210 leukemia = experiment: ip-implanted L1210 leukemia in mice; details: mouse, in vivo, ip;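 note: each mouse received 10^6 L1210 cells intraperitoneally, with drug treatment also given by the i.p. route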
# Method: as §4, §5, §6
# maximally tolerated dose of the drugs.
# [5] = test system: sc B16 melanoma/F10 subline; experiment: sc-implanted B16 melanoma/F10 subline in mice; assay type: in vivo, mouse
# Source text: as §1
# [6] = ip M5076, single dose on Days 1, 5, 9 and 13 ip, additional study
# [7] = ip M5076, single dose on Days 1, 5 and 9 ip, additional study
smiles,measurement,setting,value
"CC[C@@]1(O)C(=O)OCc2c1cc1n(c2=O)Cc2cc3c(CN(C)C)c(O)ccc3nc2-1 [Compound No. 1S, (20 S) 9-Dimethylaminomethyl-10-hydroxycamptothecin Acetate Salt]",Increase in lifespan (ILS),"ip M5076 sarcoma; ip M5076, 1.2 mg/kg/injection",70%
same,Increase in lifespan (ILS),"ip M5076 sarcoma; ip M5076, 5 mg/kg/injection",toxic
same,Increase in lifespan (ILS),"ip M5076 sarcoma; ip M5076, 10 mg/kg/injection",toxic
same,ILS,ip M5076 sarcoma; [6],71%
same,cures,ip M5076 sarcoma; [6],1/8
same,ILS,ip M5076 sarcoma; [7],75%
same,cures,ip M5076 sarcoma; [7],1/8
same,ILS,"ip M5076 sarcoma; mouse, in vivo",57
same,Long-Term Survivors,"ip M5076 sarcoma; mouse, in vivo, 1.2 mg/kg",1/8
same,Long-Term Survivors,"ip M5076 sarcoma; mouse, in vivo, ip, 0.62 mg/kg",1/8
same,Long-Term Survivors,"ip M5076 sarcoma; mouse, in vivo, ip, 1.2 mg/kg",1/8
same,MTD,in vivo [1],15 mg/kg
same,MTD,in vivo [2],15 mg/kg
same,IC50,"[3]; 168 h, drug left in medium for full 7-day period, read-out: IC50 values, range over eight lines",0.0039 to 0.075 µg/mL
same,IC50,"[3]; brief exposure (2 hours), read-out: 50 percent inhibitory concentration, range over eight lines",0.12 to 2.1 µg/mL
same,TGI at the maximally tolerated dose,"[4]; mouse, in vivo",74
same,Tumor growth inhibition (TGI),"[4]; mouse, in vivo, 1.5 mg/kg",0%
same,Tumor growth inhibition (TGI),"[4]; mouse, in vivo, 3 mg/kg",0%
same,Tumor growth inhibition (TGI),"[4]; mouse, in vivo, 6 mg/kg",21%
same,Tumor growth inhibition (TGI),"[4]; mouse, in vivo, 12 mg/kg",0%
same,Mice without Palpable Tumors,"[4]; mouse, in vivo, 24 mg/kg",1/8
same,Increase in Lifespan (ILS) or Inhibition of Tumor Growth (TGI),"[4]; mouse, in vivo, sc",85 % TGI
same,inhibition of tumor growth at the maximally tolerated dose,"[4]; mouse, in vivo, sc",> 70
same,Tumor growth inhibition (TGI),"[4]; sc Madison lung, C/iv (every 3 hours x4 on Days 1, 5 and 9), 0.19 mg/kg/injection",0%
same,Tumor growth inhibition (TGI),"[4]; sc Madison lung, C/iv (every 3 hours x4 on Days 1, 5 and 9), 0.38 mg/kg/injection",41%
same,Tumor growth inhibition (TGI),"[4]; sc Madison lung, C/iv (every 3 hours x4 on Days 1, 5 and 9), 0.75 mg/kg/injection",63%
same,Tumor growth inhibition (TGI),"[4]; sc Madison lung, C/iv (every 3 hours x4 on Days 1, 5 and 9), 1.5 mg/kg/injection",85%
same,Tumor growth inhibition (TGI),"[4]; sc Madison lung, C/iv (every 3 hours x4 on Days 1, 5 and 9), 3 mg/kg/injection",toxic
same,Mice without Palpable Tumors,"[4]; sc Madison lung, C/iv, 0.75 mg/kg/injection",1/8
same,Mice without Palpable Tumors,"[4]; sc Madison lung, C/iv, 1.5 mg/kg/injection",3/8
same,Increase in Lifespan (ILS) or Inhibition of Tumor Growth (TGI),ip L1210 leukemia,Curative
same,Increase in lifespan (ILS),ip L1210 leukemia; 3.2 mg/kg,31%
same,Increase in lifespan (ILS),ip L1210 leukemia; 5.4 mg/kg,81%
same,Increase in lifespan (ILS),ip L1210 leukemia; 9 mg/kg,138%
same,Increase in lifespan (ILS),ip L1210 leukemia; 15 mg/kg,219%
same,Long-Term Survivors,ip L1210 leukemia; 15 mg/kg,2/6
same,Increase in lifespan (ILS),ip L1210 leukemia; 25 mg/kg,toxic
same,long term survivors at the maximally tolerated doses,ip L1210 leukemia; Acetate Salt,1/6 and 0/6 and 2/6 and 5/6
same,Increase in Lifespan (ILS) or Inhibition of Tumor Growth (TGI),"[5]; mouse, in vivo, sc",100 % TGI
same,Tumor growth inhibition (TGI),"[5]; sc B16/F10, B/ip (Days 1, 5, 9 and 13), 3.2 mg/kg/injection",52%
same,Tumor growth inhibition (TGI),"[5]; sc B16/F10, B/ip (Days 1, 5, 9 and 13), 5.4 mg/kg/injection",62%
same,Tumor growth inhibition (TGI),"[5]; sc B16/F10, B/ip (Days 1, 5, 9 and 13), 9 mg/kg/injection",57%
same,Tumor growth inhibition (TGI),"[5]; sc B16/F10, B/ip (Days 1, 5, 9 and 13), 15 mg/kg/injection",87%
same,Tumor growth inhibition (TGI),"[5]; sc B16/F10, B/ip (Days 1, 5, 9 and 13), 25 mg/kg/injection",100%
same,Mice without Palpable Tumors,"[5]; sc B16/F10, B/ip, 25 mg/kg/injection",7/8
same,Tumor growth inhibition (TGI),"[5]; sc B16/F10, F/iv (Days 1, 5 and 9), 3.2 mg/kg/injection",22%
same,Tumor growth inhibition (TGI),"[5]; sc B16/F10, F/iv (Days 1, 5 and 9), 5.4 mg/kg/injection",34%
same,Tumor growth inhibition (TGI),"[5]; sc B16/F10, F/iv (Days 1, 5 and 9), 9 mg/kg/injection",60%
same,Tumor growth inhibition (TGI),"[5]; sc B16/F10, F/iv (Days 1, 5 and 9), 15 mg/kg/injection",97%
same,Tumor growth inhibition (TGI),"[5]; sc B16/F10, F/iv (Days 1, 5 and 9), 25 mg/kg/injection",97%
same,Mice without Palpable Tumors,"[5]; sc B16/F10, F/iv, 3.2 mg/kg/injection",1/8
same,Mice without Palpable Tumors,"[5]; sc B16/F10, F/iv, 5.4 mg/kg/injection",1/8
same,Mice without Palpable Tumors,"[5]; sc B16/F10, F/iv, 9 mg/kg/injection",2/8
same,Mice without Palpable Tumors,"[5]; sc B16/F10, F/iv, 15 mg/kg/injection",7/8
same,Mice without Palpable Tumors,"[5]; sc B16/F10, F/iv, 25 mg/kg/injection",6/8
same,Increase in lifespan (ILS),"[5]; sc B16/F10, ip treatment at 25",70%
same,tumor growth inhibition at two dose levels,"[5]; sc B16/F10, iv on Days 1, 5 and 9",97%
same,ILS,"[5]; sc B16/F10, iv treatment at the same dose level (25)",38%

# — patent US5004758A, “Water soluble camptothecin analogs useful for inhibiting the growth of animal tumor cells” (priority 1988, dated 1991)
